# Assays:
# RSV = settings: literature report; cited from earlier work
# HIV-1 NL4-3 = format: cell-based; settings: 50 μM DAA, CEM-SS cells, Western at 72 hpi
# IAV = settings: literature report; cited from earlier work
# [1] = test system: m^6A levels in total poly(A)+ RNA; format: cell-based, human; settings: 50 μM DAA, CEM-SS cells, dot blot
# [2] = test system: m^6A addition to mRNA substrates; settings: by blocking the hydrolysis of S-adenosylhomocysteine; literature; cited from earlier work
# HIV-1 = settings: literature report; cited from earlier work
smiles,measurement,setting,value
"Nc1nccc2c1ncn2[C@@H]1O[C@H](CO)[C@@H](O)[C@H]1O [DAA, 3-deazaadenosine]",replication of RSV,RSV,inhibit the replication
same,replication of HIV-1,HIV-1 NL4-3,effectively inhibited
same,replication of IAV,IAV,inhibit the replication
same,cell growth or viability,"CEM-SS cells; 50 μM DAA, four day treatment period, CEM-SS cells",did not reduce cell growth or viability
same,total level of cellular protein (BCA assay) in HIV-1 infected cultures,"CEM-SS cells; presence or absence of DAA, CEM-SS cell pellets",similar
same,m^6A levels in total poly(A)+ RNA,[1],significant decline
same,m^6A addition to mRNA substrates,[2],block m^6A addition
same,replication of HIV-1,HIV-1,inhibit the replication
